The test system of one series is SARS-CoV-2. The series can be described thus: SARS-CoV-2 plaque formation in Vero E6 cells. The class given is cell-based. As to conditions: Severe acute respiratory syndrome coronavirus 2, Vero C1008, pre-incubated one hour before addition of virus, read-out: IC50, SARS-CoV-2 plaque formation / viral replication.
The conditions of series [1]: in vivo; cited from earlier work.
Details of series [2]: species or system rats. The note with it: rat, in vivo. From the text: (§1) In rats, the percentages of an administered oral dose excreted into the feces as dalcetrapib-ester and dalcetrapib thiol plus dalcetrapib thiol dimer are 41.1% and 17.8%, respectively. The corresponding values following oral administration in monkeys are 11.6% and 22.2%.
On the set-up of series [3]: species or system monkeys. As to conditions: monkey, in vivo.
Text: as §1

Series [4] deals with T1, cholesteryl ester transfer protein (Homo sapiens, UniProt P11597).
T1 sequence (P11597 18-493): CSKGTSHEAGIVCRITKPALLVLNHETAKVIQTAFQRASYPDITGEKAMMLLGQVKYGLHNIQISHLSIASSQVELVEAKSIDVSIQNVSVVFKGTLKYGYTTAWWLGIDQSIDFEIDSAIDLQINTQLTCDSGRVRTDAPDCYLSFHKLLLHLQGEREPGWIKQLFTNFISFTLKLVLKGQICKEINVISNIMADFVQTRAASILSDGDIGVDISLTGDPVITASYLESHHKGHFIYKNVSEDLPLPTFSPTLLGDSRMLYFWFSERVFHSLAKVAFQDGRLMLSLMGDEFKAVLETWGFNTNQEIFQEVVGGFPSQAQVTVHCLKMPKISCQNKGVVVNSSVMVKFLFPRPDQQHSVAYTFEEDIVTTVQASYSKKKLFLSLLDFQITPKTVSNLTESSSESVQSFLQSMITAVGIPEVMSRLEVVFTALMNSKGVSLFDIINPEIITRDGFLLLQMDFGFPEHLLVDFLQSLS
As to conditions: cited from earlier work.

Details of series [5]: species or system rodents. As to conditions: in vivo, po.
Text: as §1

Each structure is given as a SMILES string. Read-outs that look alike come from different tables or passages of the source.

For the molecule `CCC(CC)CC1(C(=O)Nc2ccccc2S)CCCCC1` [Dalcetrapib thiol], the IC50 in the series on SARS-CoV-2 was ~17.8 µM.
Take `CCC(CC)CC1(C(=O)Nc2ccccc2SC(=O)C(C)C)CCCCC1` [Dalcetrapib]: the IC50 in the series with SARS-CoV-2 was 17.8 µM; in series [4] (pre-incubation 1 hour), 1.18 µM; in series [4] (pre-incubation 24 hours) it was 0.045 µM. In addition, the “safety issues from formation of covalent protein adducts” value in series [1] was “has not been observed”. In addition, the “percentage of administered oral dose excreted into the feces as dalcetrapib thiol plus dalcetrapib thiol dimer” value in series [2] was determined as 17.8%; in series [3] it was 22.2%. The “percentage of administered oral dose excreted into the feces as dalcetrapib-ester” value in series [2] was found to be 41.1%; in series [3] it was 11.6%. The tissue distribution result in series [5] is “distributes in all tissues including the lungs and gastrointestinal tract”.

The values above are taken from patent US20210338626A1, “METHODS FOR TREATING OR PREVENTING A VIRAL INFECTION OR INHIBITING VIRAL REPLICATION” (Dalcor Pharma UK Ltd., Leatherhead, Zug Branch, priority 2020, published 2021).
